Results on one compound are retold here after patent publication US6583137B1, “Protease inhibitors” (SmithKline Beecham Corporation, priority 1999, dated 2003).

The nature of the data set: Chiral / configurational stability at the carbon alpha to the ketone. Type of data set: physicochemical.

For `[2H]C1(NC(=O)[C@H](CC(C)C)NC(=O)c2cnc3ccccc3n2)CCCN(S(=O)(=O)c2cccc[n+]2[O-])C([2H])([2H])C1=O` (stereo partly drawn) [present compound, quinoxaline-2-carboxylic acid {(S)-3-methyl-1-[(2,2′,4-trideuterio)-3-oxo-1-(1-oxy-pyridine-2-sulfonyl)-azepan-4-ylcarbamoyl]-butyl}amide], under “compared to the corresponding 5 and 6 membered ring compounds”, the “configurational stability at the carbon center alpha to the ketone” value is given as “configurationally more stable”. For the same compound, the chiral stability entry (compared to the protonated isomer) is reported as “superior chiral stability”.
